This is an account of results in ChEMBL document CHEMBL1148347, “Identification of non-phosphate-containing small molecular weight inhibitors of the tyrosine kinase p56 Lck SH2 domain via in silico screening against the pY + 3 binding site” (J Med Chem, 2004).

For one assay, the species on record is Mus musculus. Put plainly: Inhibition of [3H]-thymidine incorporation into murine mixed lymphocyte culture at 100 uM (Significant anti-proliferative activity). In kind it is functional.
The target in assay [1] is Tyrosine-protein kinase Lck (Homo sapiens, UniProt P06239). Description: Dissociation constant for p56 Lck tyrosine kinase SH2 domain by fluorescence titration.

Calls of active or inactive are those of the source. The rule behind the calls is not given here.

Sequence of Tyrosine-protein kinase Lck (P06239 whole entry, the tested form may be a part): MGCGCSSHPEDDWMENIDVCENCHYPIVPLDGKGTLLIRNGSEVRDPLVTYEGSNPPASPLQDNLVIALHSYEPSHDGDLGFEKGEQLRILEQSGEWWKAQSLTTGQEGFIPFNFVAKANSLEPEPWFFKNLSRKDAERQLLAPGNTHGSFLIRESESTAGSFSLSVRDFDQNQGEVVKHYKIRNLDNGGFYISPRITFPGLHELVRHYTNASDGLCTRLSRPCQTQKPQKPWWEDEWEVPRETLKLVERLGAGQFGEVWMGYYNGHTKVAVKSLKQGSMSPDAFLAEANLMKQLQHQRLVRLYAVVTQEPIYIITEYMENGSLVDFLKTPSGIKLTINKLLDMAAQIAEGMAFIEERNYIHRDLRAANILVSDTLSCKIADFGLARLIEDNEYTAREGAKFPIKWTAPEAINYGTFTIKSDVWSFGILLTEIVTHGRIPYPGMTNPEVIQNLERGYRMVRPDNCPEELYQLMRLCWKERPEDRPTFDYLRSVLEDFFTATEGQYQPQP

For the compound `O=C(O)CSc1cccnc1Sc1ccc(Cl)cc1`, the inhibition result in the assay listed under Mus musculus was “Active”. For `COc1ccc([N+](=O)[O-])cc1CSc1nnc(N)s1`, the inhibition entry in the assay filed under Mus musculus is “Active”.

`O=C(O)c1cccc(/N=C2\C(Cl)=C(O)OC2OC(=O)c2ccccc2)c1` (configuration not stated): in the assay listed under Mus musculus, the inhibition result is “Active”. On the same count and under the same terms, to `O=C(O)c1ccccc1SCc1cc(O)nc(O)n1` belongs “Active”; to `COc1ccc(OC)c(NC(=O)CCNC(=O)Cn2cnc3ccccc3c2=O)c1`, “Active”. As for `Cc1ccc(NC(=O)CN2C(=O)S/C(=C\c3ccc(-c4cc(C(=O)O)ccc4C)o3)C2=O)cc1`, the Kd in assay [1] was 6 µM. For the same compound, in the assay listed under Mus musculus, the inhibition result is “Active”. As to `Cc1ccc(C(=O)O)cc1NC(=O)CCC(=O)O`, the inhibition entry in the assay filed under Mus musculus was “Active”.

Consider `O=C(O)CC1SC(N/N=C2/CCCc3ccccc32)=NC1=O` (configuration not stated), for which the inhibition entry in the assay filed under Mus musculus is “Active”. Still for that read-out and setting: to `O=C(NCc1cccs1)c1cccnc1SCc1cccc(Br)c1` belongs “Active”; to `Cc1ccc(NC(=O)c2cccc(NC(=O)c3ccccc3C(=O)O)c2)cc1C`, “Active”. With `COc1ccc(-n2c(SCC(=O)Nc3ccccc3OC)nc3nnc(C)c-3c2N)cc1`, the inhibition entry in the assay listed under Mus musculus was “Active”.
